Assay results taken from PubChem BioAssay (NCI).
Values joined by “and” are separate entries in the source; they are usually repeats but may differ in a detail not shown here. Equal values may be shown once.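 These data come from cells grown in 96-well plates and exposed to compound for 48 hours at five concentrations. TGI denotes the concentration required for complete inhibition of growth.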

Key:
Experiment in all cases: NCI anticancer screen, dose series, 48 h
HL-60(TB) leukemia = tested on: HL-60(TB) leukemia
NCI-H460 lung = tested on: NCI-H460 lung
NCI-H226 lung = tested on: NCI-H226 lung
NCI-H522 lung = tested on: NCI-H522 lung
CAKI-1 renal = tested on: CAKI-1 renal
M14 melanoma = tested on: M14 melanoma
EKVX NSCLC = tested on: EKVX NSCLC
HT29 colon = tested on: HT29 colon
SF-539 CNS = tested on: SF-539 CNS
RXF 393 renal = tested on: RXF 393 renal

Compound | TGI (HL-60(TB) leukemia) [µM] | TGI (NCI-H460 lung) | TGI (NCI-H226 lung) [µM] | TGI (NCI-H522 lung) [µM] | TGI (CAKI-1 renal) [µM] | TGI (M14 melanoma) [µM] | TGI (EKVX NSCLC) [µM] | TGI (HT29 colon) [µM] | TGI (SF-539 CNS) [µM] | TGI (RXF 393 renal) [µM]
C1CCCCC2(CCCCCCCCC3(CCC1)SCCS3)SCCS2 | > 100 | > 100 µM | > 100 | > 100 | > 100 | > 100 | > 100 | > 100 | > 100 | 
CCOC(=O)c1cn2c(n1)sc1cc(OC)ccc12 |  | > 100 µM | 98.2 | > 100 | > 100 | > 100 | > 100 | 20.2 | > 100 | 64.1
CN=C(Nc1ccc(OC)c2ccccc12)SC | > 10 |  |  | > 10 | > 10 | > 10 |  | > 10 | > 10 | 
N#CCCN(CCC#N)c1ccc(/C=C2\N=C(c3ccccc3)N(c3ccc(C(=O)O)cc3)C2=O)cc1 |  | > 100 µM | 95.5 |  |  | > 100 | > 100 | > 100 | 61.5 | > 100
COC(=O)CCC1(CCC(=O)OC)CCCCCCC(CCC(=O)OC)(CCC(=O)OC)C(=O)C1=O |  | > 100 µM | > 100 | > 100 | > 100 | > 100 | > 100 | > 100 | > 100 | > 100
Oc1ccc(/C=C/c2cccc(/C=C/c3ccc(O)c(O)c3)n2)cc1O | 13.4 | 38.1 µM |  |  | 90.5 | 16.9 | 25.5 | 24.5 | 9.39 | 
CCc1ccc2[nH]c(O)c(C3=Nc4ccccc4C3=O)c2c1 |  | > 100 µM | > 100 | 75.2 | > 100 | > 100 | 24.2 | > 100 |  | 51.4
CC1(C)OCC(C2OC3OC(C)(C)OC3C2c2ccccc2)O1 (stereo unspecified) | 50 | > 100 µM | 93.6 | > 100 |  | 93.9 | > 100 | > 100 | > 100 | > 100
NC(=O)CSc1c2cc(O)ccc2nc2ccc(O)cc12 | > 10 | > 10 µM | > 10 | > 10 | > 10 | > 10 | > 10 | > 10 | > 10 | > 10
Cc1ccc(S(=O)(=O)CNC(=O)C(O)(O)C(F)(F)F)cc1 | > 100 | > 100 µM |  | > 100 | > 100 | > 100 | > 100 | > 100 | > 100 | > 100
COC1(C2c3ccccc3CCN2C(=O)OC(C)(C)C)C(=O)C(c2ccccc2)=C1N(C)C (stereo unspecified) | 79.8 | > 100 µM | 59.6 | 56.8 | > 100 | > 100 | > 100 | 43.9 | 47.6 | > 100
CCCCCCCCC/C=C1/CC(CO)(COC(=O)CC(C(C)C)C(C)C)OC1=O (stereo unspecified) | 15.4 | 18.2 µM | 21.5 | 23.6 | 17.4 | 20.4 | 20.1 | 29.9 | 24.2 | 27.8
N#Cc1c2ccc([N+](=O)[O-])cc2c(=O)n2c1[nH]c1ccc(C(F)(F)F)cc12 | > 100 | > 100 µM | > 88.3 | 38.7 | > 100 | > 100 | > 100 | > 47.4 | > 100 | 
COc1ccc(C2=[S+]C(c3ccccc3)(c3ccccc3)c3ccccc32)cc1 | 51.1 | 30.5 µM | 31.3 | 79.8 | > 100 | 31.4 | > 100 | 30.3 | 40.4 | 26
CCOP(=O)(OCC)/C(C#N)=C/c1ccccn1 | > 100 | > 100 µM | > 100 | > 100 | > 100 | > 100 | > 100 | > 100 | > 100 | > 100
CC[C@@H](CCCCC1CC[C@H]2CC(=O)C[C@@H]12)OC (stereo partly specified) | > 100 | > 100 µM | > 100 | > 100 | > 100 | > 100 | > 100 | > 100 | > 100 | > 100
COc1cc(/C=N/N=C(\N)NO)cc(OC)c1OC | 42.1 | > 100 µM | 73.8 | 80.6 | > 100 | > 100 | > 100 | > 100 | 75.7 | > 100
CC(C)(C)C(=O)Oc1ccc(/C=C/C(=O)c2ccc(OC(=O)C(C)(C)C)cc2)cc1 | 75.5 | > 100 µM | > 100 | 8.78 | 96.7 | > 100 | > 100 | > 100 | > 100 | 87.3
O=c1oc(-c2ccc(O)cc2)cc2cc(O)ccc12 | 48.6 | 58.2 µM |  | > 100 | > 100 | 55.5 | > 100 |  | > 100 | 54.4
CCOC(=O)C(=CNc1ccc(N(C2=NCC(C)S2)c2ccc(F)c(Cl)c2)cc1)C(=O)OCC (stereo unspecified) | 52.9 | 49.7 µM | 36.6 | 30.3 | > 100 | 35.4 | 43.3 | 34.7 | 46.4 | 21.3
CC(C)=NOC(=O)CNC(=O)C(Cc1ccccc1)NC(=O)C(C)NC(=O)OC(C)(C)C (stereo unspecified) | > 100 | > 100 µM | > 100 | > 100 | > 100 | > 100 | > 100 | > 100 | > 100 | > 100
CC1(C)CO[P@@](=S)(c2ccccn2)O[C@@H]1c1ccccc1 | > 100 | > 100 µM | > 100 | > 100 | > 100 | > 100 | > 100 | > 100 |  | > 100
O=C(O)c1nc2ccc(C(F)(F)F)cc2nc1Nc1ccc(Cl)c(Cl)c1 | 21.9 | 20.8 µM | 24.9 | 15.2 | 30.6 |  | 22.8 | 27.1 |  | 28.9
CC(=O)O[C@H]1CC[C@@]2(C)C(=CC[C@@H]3[C@@H]2CC[C@]2(C)c4c(n[nH]c4C)C[C@@H]32)C1 | 28.4 | 32.4 µM | 35.2 | 23 | 32.5 | 37.3 | 34.7 | 23.5 |  | 23.9

Compound | TGI (HL-60(TB) leukemia) [µM] | TGI (NCI-H460 lung) | TGI (NCI-H226 lung) [µM] | TGI (NCI-H522 lung) [µM] | TGI (CAKI-1 renal) [µM] | TGI (M14 melanoma) [µM] | TGI (EKVX NSCLC) [µM] | TGI (HT29 colon) [µM] | TGI (SF-539 CNS) [µM] | TGI (RXF 393 renal) [µM]
COc1ccc(-c2c(-c3ccccc3)c(C)c3ccccn23)cc1 | > 100 | > 100 µM | > 100 | > 100 | > 100 | > 100 | > 100 | > 100 | > 100 | 
O=C1C[C@@]23CCC4(CC2CCC[C@H]3O1)OCCO4 (stereo partly specified) | > 100 | > 100 µM | > 100 | > 100 |  | > 100 | > 100 | > 100 | > 100 | > 100
O=c1cc(-c2ccccc2)[nH]c2cc(F)cc(F)c12 | > 100 | > 100 µM | 80.5 | 35.3 | > 100 | > 100 |  | > 100 | 85.5 | 81.7
C/C(=N\NC(=O)c1ccc(Cl)cc1)c1nc2ncccc2[nH]1 | 70.2 | > 100 µM |  | 58.3 | > 100 | > 100 | > 100 | > 100 | 40.3 | 55.4
COc1cc(C(=O)N[C@H]2CCc3cc(OC)c(OC)c(OC)c3-c3ccc(SC)c(=O)cc32)cc(OC)c1OC | 0.578 | 0.0137 µM and 0.0808 µM |  | 0.00974 |  |  | 25 | > 100 | 0.0145 | 
O=c1[nH]nc(-c2ccccc2)n1/N=C/c1ccccc1O |  | > 100 µM | > 100 | > 100 | > 100 |  | > 100 | > 100 | > 100 | > 100
CC(=O)C(C)C(=O)N1C(=O)N(C)C2(C)N(C)C(=O)NC12C (stereo unspecified) | > 100 | > 100 µM |  | > 100 | > 100 | > 100 | > 100 | > 100 | > 100 | 
Cn1c(=Nc2ccc(Cl)cc2)sc2ccccc21 | > 100 | > 100 µM | > 100 | 35 | > 100 |  | > 100 | > 100 | > 100 | > 100
CC1CN=C(Nc2cccc(F)c2)S1 (stereo unspecified) | > 100 |  | > 100 | > 100 | > 100 | > 100 | > 100 | > 100 | > 100 | > 100
N#CC1=C(N)N(/N=C/c2ccccc2)C(c2ccccc2)C1(C#N)C#N (stereo unspecified) | 5.47 |  | 37.2 | 16.6 | 13 | 42.8 | 38.3 | 15.7 | 33.9 | 9.83
O=C(c1cccs1)c1nccc2c1cnc1ccccc12 | > 100 | > 100 µM | > 100 |  | > 100 | > 100 | > 100 | > 100 | > 100 | 21.2
COc1ccc2oc(S(=O)(=O)N3CC(CCl)c4ccc(N)cc43)cc2c1 (stereo unspecified) | 0.454 | 10.6 µM | 1.77 | > 67.6 | > 86.3 | > 100 | > 100 | 10.1 | > 41.4 | 
CC1(C)OC(=S)N(c2ccccc2)C12C=Cc1cc3ccccc3nc1S2 (stereo unspecified) | > 100 | > 100 µM | > 100 | > 100 |  | > 100 | > 100 | > 100 | > 100 | > 100
Cc1ccc2nc3n[nH]c(N)c3nc2c1 |  | > 100 µM | > 100 | > 100 | > 100 | > 100 | > 100 | > 100 | > 100 | > 100
Nc1ccc(-c2nc3ccc(F)cc3s2)cc1Cl |  |  | > 100 | > 100 | > 100 | > 100 | > 100 | > 100 | > 100 | > 73.8
COc1ccc(-c2c(-c3ccc(OC)cc3)n3c(=O)n(C)c(=O)n23)cc1 |  |  | > 100 | > 100 | > 100 | > 100 | > 100 |  | 72.9 | > 100
Cc1ccc(S(=O)C[C@](NC(=O)OCc2ccccc2)(Sc2ccccc2)C(F)F)cc1 (stereo partly specified) | 24.9 | 42.2 µM | 32.4 | 22.4 | 50.4 | > 100 | 29.3 | 31.1 |  | 79.5
O=C1/C(=C\c2ccc(Br)cc2)CCCc2ccccc21 | 69 | 34 µM | 28.6 |  | 68.7 | > 100 | 39 | 30.4 | 43.1 | 43.3
Nc1nccc(NCC2(CO)CC(OCc3ccccc3)C2)n1 (stereo unspecified) | > 100 | > 100 µM | > 100 | > 100 | > 100 |  | > 100 | > 100 | > 100 | > 100
COc1ccc(/C=C2\C[C@H]3[C@@H]4CCC5=C/C(=N/O)CC[C@]5(C)[C@H]4CC[C@]3(C)\C2=N\O)cc1 |  | > 100 µM | 95.4 | 91.7 | > 100 | 57.7 | > 100 | 45.3 |  | 98.8
COc1ccc2cc(CNCCCCCCCCNCc3ccc4cc(OC)ccc4c3)ccc2c1 | 15.2 | 33.9 µM | > 100 | 69.4 | > 100 |  |  | 8.46 |  | > 100
CCC(=O)N/S(=N/S(=O)(=O)c1ccccc1)C(Cl)(Cl)Cl (stereo unspecified) | > 100 | > 100 µM | > 100 |  |  | > 100 | > 100 | > 100 | > 100 | > 100
O=c1[nH]ncc2[nH]c3c4ccccc4ccc3c12 | > 100 | > 100 µM |  | 66.6 | > 100 | > 100 | > 100 | > 100 | > 100 | > 100
